# Source: PMC12274840 (The Journal of Biological Chemistry, 2025)
# Like-named read-outs stand apart in the source and are kept apart here.
# Tested on: E. coli KA797 cells carrying BlaC position 105 library
# Assay type: cell-based, Escherichia coli
# Conditions: for Fi AVG (average fitness): relative to WT Ile; for Fi AVG (average fitness) / Fi MEM AVG: average of replicates; for Fi MEM AVG / Fi MEM 1 / Fi MEM 2 / Fi MEM 3 / Significance (Fi MEM AVG): meropenem; for Fi MEM 1: replicate 1; for Fi MEM 2: replicate 2; for Fi MEM 3: replicate 3
smiles,measurement,setting,value
C[C@@H](O)[C@H]1C(=O)N2C(C(=O)O)=C(S[C@@H]3CN[C@H](C(=O)N(C)C)C3)[C@H](C)[C@H]12 [meropenem],Fi AVG (average fitness),AA 105 Ala (BlaC I105A),-0.028
same,Fi MEM AVG,AA 105 Ala,-0.183
same,Fi MEM 1,AA 105 Ala,-0.183
same,Fi MEM AVG,AA 105 Arg,-0.097
same,Fi MEM 1,AA 105 Arg,0.189
same,Fi MEM 2,AA 105 Arg,0.262
same,Fi MEM 3,AA 105 Arg,-0.743
same,Fi AVG (average fitness),AA 105 Asn (BlaC I105N),-0.021
same,Fi MEM AVG,AA 105 Asn,-0.526
same,Fi MEM 1,AA 105 Asn,0.793
same,Fi MEM 2,AA 105 Asn,-1.824
same,Fi MEM 3,AA 105 Asn,-0.547
same,Fi AVG (average fitness),AA 105 Asp (BlaC I105D),-0.059
same,Significance (Fi MEM AVG),AA 105 Asp,-
same,Fi MEM AVG,AA 105 Asp,-1.181
same,Fi MEM 1,AA 105 Asp,-1.339
same,Fi MEM 2,AA 105 Asp,-1.644
same,Fi MEM 3,AA 105 Asp,-0.561
same,Fi MEM AVG,AA 105 Cys,-0.623
same,Fi MEM 1,AA 105 Cys,-1.368
same,Fi MEM 2,AA 105 Cys,1.109
same,Fi MEM 3,AA 105 Cys,-1.611
same,Fi AVG (average fitness),AA 105 Gln (BlaC I105Q),-0.020
same,Fi MEM AVG,AA 105 Gln,-1.909
same,Fi MEM 2,AA 105 Gln,-1.909
same,Fi AVG (average fitness),AA 105 Glu (BlaC I105E),-0.058
same,Significance (Fi MEM AVG),AA 105 Glu,-
same,Fi MEM AVG,AA 105 Glu,-1.296
same,Fi MEM 1,AA 105 Glu,-1.915
same,Fi MEM 2,AA 105 Glu,0.069
same,Fi MEM 3,AA 105 Glu,-2.043
same,Fi AVG (average fitness),AA 105 Gly (BlaC I105G),-0.019
same,Significance (Fi MEM AVG),AA 105 Gly,-
same,Fi MEM AVG,AA 105 Gly,-1.447
same,Fi MEM 1,AA 105 Gly,-0.905
same,Fi MEM 2,AA 105 Gly,-2.832
same,Fi MEM 3,AA 105 Gly,-0.603
same,Fi MEM AVG,AA 105 His,0.129
same,Fi MEM 1,AA 105 His,1.220
same,Fi MEM 2,AA 105 His,-0.828
same,Fi MEM 3,AA 105 His,-0.00649
same,Fi MEM AVG,AA 105 Ile (WT),0.000
same,Fi MEM 1,AA 105 Ile (WT),0.000
same,Fi MEM 2,AA 105 Ile (WT),0.000
same,Fi MEM 3,AA 105 Ile (WT),0.000
same,Significance (Fi MEM AVG),AA 105 Leu,-
same,Fi MEM AVG,AA 105 Leu,-1.047
same,Fi MEM 1,AA 105 Leu,-0.470
same,Fi MEM 2,AA 105 Leu,-1.669
same,Fi MEM 3,AA 105 Leu,-1.001
same,Significance (Fi MEM AVG),AA 105 Lys,-
same,Fi MEM AVG,AA 105 Lys,-2.317
same,Fi MEM 1,AA 105 Lys,-1.936
same,Fi MEM 2,AA 105 Lys,-2.755
same,Fi MEM 3,AA 105 Lys,-2.261
same,Fi MEM AVG,AA 105 Met,-0.579
same,Fi MEM 1,AA 105 Met,-0.023
same,Fi MEM 2,AA 105 Met,-0.087
same,Fi MEM 3,AA 105 Met,-1.628
same,Significance (Fi MEM AVG),AA 105 Phe,-
same,Fi MEM AVG,AA 105 Phe,-1.123
same,Fi MEM 1,AA 105 Phe,-0.896
same,Fi MEM 2,AA 105 Phe,-1.005
same,Fi MEM 3,AA 105 Phe,-1.468
same,Fi AVG (average fitness),AA 105 Pro (BlaC I105P),-0.044
same,Significance (Fi MEM AVG),AA 105 Pro,-
same,Fi MEM AVG,AA 105 Pro,-1.653
same,Fi MEM 1,AA 105 Pro,-2.435
same,Fi MEM 2,AA 105 Pro,0.050
same,Fi MEM 3,AA 105 Pro,-2.575
same,Significance (Fi MEM AVG),AA 105 Ser,-
same,Fi MEM AVG,AA 105 Ser,-1.018
same,Fi MEM 1,AA 105 Ser,-0.084
same,Fi MEM 2,AA 105 Ser,-1.824
same,Fi MEM 3,AA 105 Ser,-1.144
same,Fi AVG (average fitness),AA 105 Thr (BlaC I105T),-0.015
